# Tests used:
# ΔF508-CFTR [1] = biological target: T1, ΔF508-CFTR (Homo sapiens, UniProt P13569, DEL508-508); test: Ussing measurements (short-circuit current, CFTRinh-172-inhibitable); format: cell-based; conditions: compound at 10 uM and VX-809 at 3 uM, relative to VX-809 (3 uM); hBEs homozygous for ΔF508, 24 hours treatment; CFTRinh-172-inhibitable current
# T1 construct: Primary lung epithelial cells homozygous for the Cystic Fibrosis-causing ΔF508 mutation were differentiated; endogenous in cells; host or cells: primary human lung (bronchial) epithelial cells homozygous for ΔF508, differentiated at air-liquid interface
# T1 sequence (P13569 with tags, fused parts or gaps DEL508-508): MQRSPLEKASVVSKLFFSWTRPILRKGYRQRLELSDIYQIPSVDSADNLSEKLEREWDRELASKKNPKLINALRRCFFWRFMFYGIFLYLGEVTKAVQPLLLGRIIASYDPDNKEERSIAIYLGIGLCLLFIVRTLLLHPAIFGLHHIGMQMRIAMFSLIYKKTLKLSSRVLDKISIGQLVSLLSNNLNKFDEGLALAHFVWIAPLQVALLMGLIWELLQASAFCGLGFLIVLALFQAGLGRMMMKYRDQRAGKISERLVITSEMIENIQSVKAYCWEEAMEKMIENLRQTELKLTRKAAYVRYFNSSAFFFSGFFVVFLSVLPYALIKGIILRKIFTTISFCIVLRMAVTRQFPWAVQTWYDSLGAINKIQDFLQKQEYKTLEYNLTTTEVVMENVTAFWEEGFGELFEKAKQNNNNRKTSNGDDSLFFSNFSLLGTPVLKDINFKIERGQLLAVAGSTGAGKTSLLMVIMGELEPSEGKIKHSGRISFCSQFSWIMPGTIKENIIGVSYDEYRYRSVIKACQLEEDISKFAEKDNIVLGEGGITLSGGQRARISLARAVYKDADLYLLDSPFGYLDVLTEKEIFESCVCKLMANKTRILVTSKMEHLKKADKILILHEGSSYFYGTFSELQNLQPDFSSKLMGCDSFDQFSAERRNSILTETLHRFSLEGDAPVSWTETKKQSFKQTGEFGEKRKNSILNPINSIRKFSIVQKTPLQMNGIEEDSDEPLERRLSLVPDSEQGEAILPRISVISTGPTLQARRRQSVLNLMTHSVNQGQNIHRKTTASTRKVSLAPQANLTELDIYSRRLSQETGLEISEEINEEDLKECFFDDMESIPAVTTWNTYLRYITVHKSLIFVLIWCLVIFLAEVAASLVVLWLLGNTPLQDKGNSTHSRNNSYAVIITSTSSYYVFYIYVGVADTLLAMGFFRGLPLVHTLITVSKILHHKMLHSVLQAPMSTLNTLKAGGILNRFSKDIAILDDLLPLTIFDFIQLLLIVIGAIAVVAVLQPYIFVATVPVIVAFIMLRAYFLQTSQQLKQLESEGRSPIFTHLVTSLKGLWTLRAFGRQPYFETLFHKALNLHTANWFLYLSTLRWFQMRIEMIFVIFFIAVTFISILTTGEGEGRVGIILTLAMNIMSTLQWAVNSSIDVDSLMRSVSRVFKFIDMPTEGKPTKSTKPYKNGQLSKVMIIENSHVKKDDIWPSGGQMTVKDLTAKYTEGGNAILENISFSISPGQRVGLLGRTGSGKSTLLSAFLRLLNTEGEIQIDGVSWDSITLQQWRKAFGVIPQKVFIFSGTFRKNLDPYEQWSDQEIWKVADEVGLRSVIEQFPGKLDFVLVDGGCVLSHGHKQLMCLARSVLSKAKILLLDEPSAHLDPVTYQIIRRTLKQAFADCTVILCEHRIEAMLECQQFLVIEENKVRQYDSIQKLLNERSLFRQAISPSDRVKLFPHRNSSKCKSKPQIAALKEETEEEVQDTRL
# Protocol: As discussed above, Ussing measurements can be used to measure CFTR activity. In this method, primary lung epithelial cells (hBEs) homozygous for the Cystic Fibrosis-causing ΔF508 mutation were differentiated for a minimum of 4 weeks in an air-liquid interface on SnapWell filter plates prior to the Ussing measurements. Cells were apically mucus-washed for 30 minutes prior to treatment with compounds. The basolateral media was removed and replaced with media containing the compound of interest diluted to its final concentration from DMSO stocks. Treated cells were incubated at 37° C. and 5% CO2 for 24 hours. At the end of the treatment period, the cells on filters were transferred to the Ussing chamber and equilibrated for 30 minutes. The short-circuit current was measured in voltage clamp-mode (Vhold=0 mV), and the entire assay was conducted at a temperature of 36° C.-36.5° C. Once the voltages stabilized, the chambers were clamped, and data was recorded by pulse readings every 5 seconds. Following baseline current stabilization, the following additions were applied and the changes in current and resistance of the cells was monitored: • 1. Benzamil to the apical chamber to inhibit ENaC sodium channel. • 2. Forskolin to both chambers to activate ΔF508-CFTR by phosphorylation. • 3. Genistein to both chambers to potentiate ΔF508-CFTR channel opening. • 4. CFTRinh-172 to the apical chamber to inhibit ΔF508-CFTR Cl— conductance. The inhibitable current (that current that is blocked by CFTRinh-172) is measured as the specific activity of the ΔF508-CFTR channel, and increases in response to compound in this activity over that observed in vehicle-treated samples are identified as the correction of ΔF508-CFTR function imparted by the compound tested.
# ΔF508-CFTR [2] = biological target: T1, ΔF508-CFTR; test: hBE equivalent current (Ieq) assay; format: cell-based; conditions: compound at 10 uM and VX-809 at 1 uM, relative to VX-809 (1 uM); primary lung epithelial cells homozygous for ΔF508, 24 hours treatment; AUC of equivalent chloride current
# Protocol: ii. hBE Equivalent Current (Ieq) Assay
# Primary lung epithelial cells homozygous for the Cystic Fibrosis-causing ΔF508 mutation were differentiated for a minimum of 4 weeks in an air-liquid interface on Costar 24 well HTS filter plates prior to the equivalent current (Ieq) measurements. Cells were apically mucus-washed for 30 minutes 24 h prior to treatment with compounds. The basolateral media was removed and replaced with media containing the compound of interest diluted to its final concentration from DMSO stocks. Treated cells were incubated at 37° C. and 5% CO2 for 24 hours. At the end of the treatment period, the media was changed to the Ieq experimental solution for 30 minutes before the experiment and plates are maintained in a CO2-free incubator during this period. The plates containing the cells were then placed in pre-warmed heating blocks at 36° ° C.±0.5 for 15 minutes before measurements are taken. The transepithelial voltage (VT) and conductance (GT) were measured using a custom 24 channel current clamp (TECC-24) with 24 well electrode manifold. The Ieq assay measurements were made following additions with standardized time periods: • 1. The baseline VT and GT values were measured for approximately 20 minutes. • 2. Benzamil was added to block ENaC for 15 minutes. • 3. Forskolin plus VX-770 (ivacaftor) were added to maximally activate ΔF508-CFTR for 27 minutes. • 4. Bumetanide was added to inhibit the NaK2Cl cotransporter and shut-off secretion of chloride.
# The activity data captured was the area under the curve (AUC) for the traces of the equivalent chloride current. The AUC was collected from the time of the forskolin/VX-770 addition until the inhibition by bumetanide addition. Correction in response to compound treatment was scored as the increase in the AUC for compound-treated samples over that of vehicle-treated samples.
Structure (SMILES),Ussing (% VX-809) (ΔF508-CFTR [1]),Ieq (% VX-809) (ΔF508-CFTR [2])
O=C(N[C@H]1C[C@@H](c2noc(CO)n2)C1)c1cc(-c2ccccc2)on1,## (activity ≥200% of VX-809 (3 uM) with compound at 10 uM and VX-809 at 3 uM),** (activity ≥200% of VX-809 (1 uM) with compound at 10 uM and VX-809 at 1 uM)
O=C(NC1CC(c2nc(CO)no2)C1)c1cc(-c2ccccc2)on1 (stereo not drawn),## (activity ≥200% of VX-809 (3 uM) with compound at 10 uM and VX-809 at 3 uM),** (activity ≥200% of VX-809 (1 uM) with compound at 10 uM and VX-809 at 1 uM)
CO[C@H](C)c1nnc([C@H]2C[C@@H](NC(=O)c3cc(-c4ccccc4)on3)C2)o1,## (activity ≥200% of VX-809 (3 uM) with compound at 10 uM and VX-809 at 3 uM),* (activity 100-200% of VX-809 (1 uM) with compound at 10 uM and VX-809 at 1 uM)
C[C@H](O)c1nnc(C2CC(NC(=O)c3cc(-c4ccccc4)on3)C2)o1 (stereo partly drawn),## (activity ≥200% of VX-809 (3 uM) with compound at 10 uM and VX-809 at 3 uM),** (activity ≥200% of VX-809 (1 uM) with compound at 10 uM and VX-809 at 1 uM)
C[C@@H](O)c1nnc(C[C@H]2C[C@H](NC(=O)c3cc(-c4ccccc4)on3)C2)s1,## (activity ≥200% of VX-809 (3 uM) with compound at 10 uM and VX-809 at 3 uM),** (activity ≥200% of VX-809 (1 uM) with compound at 10 uM and VX-809 at 1 uM)
C[C@@H](O)c1nnc([C@H]2C[C@@H](NC(=O)c3cc(-c4ccccc4)on3)C2)o1,## (activity ≥200% of VX-809 (3 uM) with compound at 10 uM and VX-809 at 3 uM),** (activity ≥200% of VX-809 (1 uM) with compound at 10 uM and VX-809 at 1 uM)
